Entries after “also recorded” stand apart in the source; their conditions may differ.
Assays:
[1] = ESPS-2; compared with low-dose aspirin / aspirin alone; cited from earlier work
[2] = system: common carotid artery of rabbits (angioplasty site); assay: Study using radiolabeled platelets and fibrinogen in vivo after balloon angioplasty of the carotid artery; settings: rabbit carotid artery, monitored four hours after angioplasty; heparin 100 U/kg bolus followed by 25 U/kg/h infusion; dipyridamole 0.25 mg/kg followed by 0.45 mg/kg/hr
Description: FIG. 1: Simultaneous detection of ^99Tc labeled platelets and ^123I-labeled fibrinogen at one minute intervals after angioplasty of the common carotid artery of rabbits. […] No injury measurements showing constant radioactivity.
FIG. 2: Deposition of radioactive labeled platelets (^99Tc) and fibrinogen (123I) at angioplasty site after treatment with dipyridamole (0.25 mg/kg followed by 0.45 mg/kg/hr).
The effects of dipyridamole and heparin were investigated using platelets radiolabeled with ^99Tc and fibrinogen labeled with ^123I. The method is described in Lorenz, M. et al., Nuclear Instruments and Methods in Physics Research A., 1994, 353:448-452. An energy-sensitive solid-state radiation detector was placed to surround each carotid artery in rabbits. After inducing injury through balloon angioplasty, the accretion of platelets and fibrinogen was monitored for four hours. […] Accretion was not detected in radiolabeled platelets injected 30 minutes after injury; apparently the angioplasty site had been passivated by endogenous platelet adherence. […] (FIG. 2).

Row | Compound | reduction of stroke risk [1] | accretion (deposition) of 99Tc labeled platelets at angioplasty site [2] | accretion (deposition) of 123I-labeled fibrinogen at angioplasty site [2]
1 | OCCN(CCO)c1nc(N2CCCCC2)c2nc(N(CCO)CCO)nc(N3CCCCC3)c2n1 [dipyridamole, 2,6-bis(diethanolamino)-4,8-dipiperidino-pyrimido[5,4-d]pyrimidine] | as effective as low-dose aspirin | reduced; also recorded: reduction in platelet aggregation which was similar to that seen with heparin | almost entirely blocked; also recorded: far greater with dipyridamole than with heparin
2 | heparin |  | reduction of platelet as well as fibrinogen accretion; also recorded: reduced accumulation of both platelets and fibrinogen | reduction of platelet as well as fibrinogen accretion; also recorded: reduced accumulation of both platelets and fibrinogen

Reference: patent US20080113934A1, “USE OF DIPYRIDAMOLE OR MOPIDAMOL FOR TREATMENT AND PREVENTION OF FIBRIN-DEPENDENT MICROCIRCULATION DISORDERS” (priority 1999, published 2008)
